The source of these data is PubChem BioAssay AID328 (DTP/NCI, 2004).

The test has as its system BDF1 mice, P388 leukemia ip, median survival T/C. As to the kind of experiment: NCI In Vivo Anticancer Drug Screen. Data for tumor model P388 Leukemia (intraperitoneal) in B6D2F1 (BDF1) mice. The settings on record: endpoint: median survival time, higher = longer survival. The method in brief:
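Compound-treated tumour-bearing mice were compared with vehicle-treated controls. Survival was recorded, and the value is the treated-group measurement divided by the control-group measurement (T/C).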

The mark [1] stands for this setting: dose: 50.0 mg/kg/injection, schedule: Q01DX009 (ip), vehicle: saline with Tween-80.
Setting [2] is: dose: 100.0 mg/kg/injection, schedule: Q01DX009 (ip), vehicle: saline with Tween-80.
[3] abbreviates: dose: 200.0 mg/kg/injection, schedule: Q01DX009 (ip), vehicle: saline with Tween-80.
Where [4] appears, read: dose: 100.0 mg/kg/injection, schedule: Q01DX009 (ip), vehicle: saline.
[5] abbreviates: dose: 200.0 mg/kg/injection, schedule: Q01DX009 (ip), vehicle: saline.
Where [6] appears, read: dose: 400.0 mg/kg/injection, schedule: Q04DX003 (ip), vehicle: saline.
Where [7] appears, read: dose: 100.0 mg/kg/injection, schedule: Q01DX009 (ip), vehicle: Klucel (hydroxypropylcellulose) (HPC).
Where [8] appears, read: dose: 100.0 mg/kg/injection, schedule: Q04DX003 (ip), vehicle: Klucel (hydroxypropylcellulose) (HPC).
Setting [9] is: dose: 200.0 mg/kg/injection, schedule: Q01DX009 (ip), vehicle: Klucel (hydroxypropylcellulose) (HPC).
Setting [10] is: dose: 200.0 mg/kg/injection, schedule: Q04DX003 (ip), vehicle: Klucel (hydroxypropylcellulose) (HPC).
Where [11] appears, read: dose: 400.0 mg/kg/injection, schedule: Q01DX009 (ip), vehicle: Klucel (hydroxypropylcellulose) (HPC).
Setting [12] is: dose: 400.0 mg/kg/injection, schedule: Q04DX003 (ip), vehicle: Klucel (hydroxypropylcellulose) (HPC).
[13] abbreviates: dose: 100.0 mg/kg/injection, schedule: Q04DX003 (ip), vehicle: saline with Tween-80.
The mark [14] stands for this setting: dose: 200.0 mg/kg/injection, schedule: Q04DX003 (ip), vehicle: saline with Tween-80.
The mark [15] stands for this setting: dose: 400.0 mg/kg/injection, schedule: Q04DX003 (ip), vehicle: saline with Tween-80.
Where [16] appears, read: dose: 150.0 mg/kg/injection, schedule: Q01DX009 (ip), vehicle: Klucel (hydroxypropylcellulose) (HPC).
[17] abbreviates: dose: 400.0 mg/kg/injection, schedule: Q01DX009 (ip), vehicle: saline.

Molecules are shown by their SMILES. “And” between values parts separate entries of the source, which are not always exact repeats. Equal entries are not always repeated. Toxic doses and inconclusive results are not listed.

As to `C=CCn1nnc(-c2ccccc2)n1`, the T/C was 117 % of control under setting [1], 117 % of control under setting [2] and 119 % of control under setting [3].
In the case of `Cc1ccc2oc(=O)c(C3=CC(=O)C(SC(=N)N)C=C3O)c(O)c2c1` (stereo unspecified), the T/C by setting is: (dose: 50.0 mg/kg/injection, schedule: Q01DX005 (ip), vehicle: Klucel (hydroxypropylcellulose) (HPC)) 95 % of control; (dose: 100.0 mg/kg/injection, schedule: Q01DX005 (ip), vehicle: Klucel (hydroxypropylcellulose) (HPC)) 97 % of control; (dose: 200.0 mg/kg/injection, schedule: Q01DX005 (ip), vehicle: Klucel (hydroxypropylcellulose) (HPC)) 91 % of control.
On to `O=C1/C(=C\c2ccccc2)OC(c2ccccc2)O/C1=C/c1ccccc1` (stereo unspecified), for which the T/C reads like this: (dose: 50.0 mg/kg/injection, schedule: Q01DX009 (ip), vehicle: saline) 108 % of control; under setting [4], 95 % of control; (dose: 100.0 mg/kg/injection, schedule: Q04DX003 (ip), vehicle: saline) 120 % of control; under setting [5], 97 % of control; (dose: 200.0 mg/kg/injection, schedule: Q04DX003 (ip), vehicle: saline) 117 % of control; under setting [6], 114 % of control.
In the case of `C=C(C)C(=O)OCC1CO1` (stereo unspecified), the T/C reads like this: (dose: 25.0 mg/kg/injection, schedule: Q01DX009 (ip), vehicle: water) 112 % of control; (dose: 50.0 mg/kg/injection, schedule: Q01DX009 (ip), vehicle: water) 96 % of control; (dose: 50.0 mg/kg/injection, schedule: Q01DX010 (ip), vehicle: saline) 100 % of control; (dose: 100.0 mg/kg/injection, schedule: Q01DX009 (ip), vehicle: water) 99 % of control; (dose: 100.0 mg/kg/injection, schedule: Q01DX010 (ip), vehicle: saline) 100 % of control; (dose: 200.0 mg/kg/injection, schedule: Q01DX009 (ip), vehicle: water) 122 % of control. Moreover, the T/C (dose: 200.0 mg/kg/injection, schedule: Q01DX010 (ip), vehicle: saline) is 104 % of control.
Take `CC1(CBr)Oc2ccccc2O1`: the T/C is, setting by setting: under setting [7], 104 % of control; under setting [8], 100 % of control; under setting [9], 108 % of control; under setting [10], 95 % of control; under setting [11], 116 % of control; under setting [12], 108 % of control.
With `CCCCCCSc1ncnc2nc[nH]c12`, the T/C is 109 % of control under setting [2]; 100 % of control under setting [13]; 100 % of control under setting [3]; 100 % of control under setting [14]; 95 % of control under setting [15].
As for `CC(=O)OCc1c(C)nc2sccn12`, the T/C (dose: 12.5 mg/kg/injection, schedule: Q01DX001 (ip), vehicle: saline) was 102 % of control; the T/C (dose: 25.0 mg/kg/injection, schedule: Q01DX001 (ip), vehicle: saline) is 92 % of control; the T/C (dose: 50.0 mg/kg/injection, schedule: Q01DX001 (ip), vehicle: saline) was 96 % of control.
Turning to `CC[N+](C)(CC)CCC[n+]1c(-c2ccccc2)c2cc(N)ccc2c2ccc(N)cc21`, the T/C was 107 % of control (dose: 1.5 mg/kg/injection, schedule: Q01DX009 (ip), vehicle: saline); 100 % of control (dose: 3.0 mg/kg/injection, schedule: Q01DX009 (ip), vehicle: saline); 100 % of control (dose: 3.12 mg/kg/injection, schedule: Q04DX003 (ip), vehicle: saline); 100 % of control (dose: 6.25 mg/kg/injection, schedule: Q04DX003 (ip), vehicle: saline).
Take `NC(N)=NC(N)=Nc1ccc([As](=O)(O)O)c(O)c1`: the T/C (dose: 44.0 mg/kg/injection, schedule: Q01DX009 (ip), vehicle: Klucel (hydroxypropylcellulose) (HPC)) was 156 % of control; the T/C (dose: 66.0 mg/kg/injection, schedule: Q01DX009 (ip), vehicle: Klucel (hydroxypropylcellulose) (HPC)) was 156 % of control; the T/C under setting [7] was 169 % of control; the T/C under setting [16] was 169 % of control; the T/C (dose: 150.0 mg/kg/injection, schedule: Q01DX009 (ip), vehicle: saline) is 155 % of control.
With `CC(=O)Oc1ccc(C2(c3ccc(OC(C)=O)cc3)C(=O)Nc3ccccc32)cc1`, the T/C by setting is: under setting [8], 95 % of control; under setting [10], 104 % of control; under setting [12], 100 % of control.
For `CN[C@@H]1[C@H](O)[C@H](NC)[C@H]2O[C@@]3(O)C(=O)C[C@@H](C)O[C@H]3O[C@@H]2[C@H]1O`, the T/C runs as follows: (dose: 6.25 mg/kg/injection, schedule: Q01DX009 (ip), vehicle: saline) 95 % of control; (dose: 12.5 mg/kg/injection, schedule: Q01DX009 (ip), vehicle: saline) 90 % of control; under setting [4], 99 % of control; under setting [5], 117 % of control; under setting [17], 115 % of control.
With `COc1ccc(C2(C(=O)O)CCCC2)cc1`, the T/C under setting [2] was 95 % of control; the T/C under setting [13] is 104 % of control; the T/C under setting [3] is 91 % of control; the T/C under setting [14] was 100 % of control; the T/C (dose: 400.0 mg/kg/injection, schedule: Q01DX009 (ip), vehicle: saline with Tween-80) was 91 % of control; the T/C under setting [15] was 112 % of control.
In the case of `Ic1ncnc2nc[nH]c12`, the T/C (dose: 75.0 mg/kg/injection, schedule: Q01DX009 (ip), vehicle: Klucel (hydroxypropylcellulose) (HPC)) is 113 % of control; the T/C under setting [4] is 104 % of control; the T/C under setting [13] was 95 % of control; the T/C under setting [16] is 113 % of control; the T/C under setting [5] was 108 % of control; the T/C under setting [14] was 104 % of control. In addition, the T/C reads like this: (dose: 300.0 mg/kg/injection, schedule: Q01DX009 (ip), vehicle: Klucel (hydroxypropylcellulose) (HPC)) 109 % of control; under setting [17], 100 % of control; under setting [15], 95 % of control.
As for `CCOC(=O)CCC(NC(=O)c1ccc2c(c1)CCCN2C=O)C(=O)OCC` (stereo unspecified), the T/C (dose: 25.0 mg/kg/injection, schedule: Q01DX001 (ip), vehicle: saline sonified) was 100 % of control; the T/C (dose: 50.0 mg/kg/injection, schedule: Q01DX001 (ip), vehicle: saline sonified) is 100 % of control; the T/C (dose: 100.0 mg/kg/injection, schedule: Q01DX001 (ip), vehicle: saline sonified) is 100 % of control.
Consider `C1OC1CO[C@H]1CO[C@H]2[C@@H]1OC[C@H]2OCC1CO1` (stereo partly specified), for which the T/C was 160 % of control and 168 % of control (dose: 264.0 mg/kg/injection, schedule: Q04DX003 (ip), vehicle: saline); 180 % of control under setting [6].
In the case of `Cc1ccc(S(=O)(=O)N2CCC(=O)c3ccc(Cl)cc32)cc1`, the T/C runs as follows: under setting [8], 100 % of control; under setting [9], 100 % of control; under setting [10], 104 % of control; under setting [11], 95 % of control; under setting [12], 104 % of control.
Turning to `CCCC(Nc1nccs1)Nc1nccs1`, the T/C by setting is: under setting [1], 107 % of control; under setting [2], 101 % of control; under setting [3], 101 % of control.
Regarding `CC1CC[N-]CC1.CC1CC[N-]CC1.[Br][Pt+2]([Br])([Br])[Br]`, the T/C by setting is: (dose: 1.56 mg/kg/injection, schedule: Q01DX009 (ip), vehicle: saline with Tween-80) 100 % of control; (dose: 3.12 mg/kg/injection, schedule: Q01DX009 (ip), vehicle: saline with Tween-80) 94 % of control; (dose: 3.12 mg/kg/injection, schedule: Q04DX003 (ip), vehicle: saline with Tween-80) 97 % of control; (dose: 6.25 mg/kg/injection, schedule: Q01DX009 (ip), vehicle: saline with Tween-80) 107 % of control; (dose: 6.25 mg/kg/injection, schedule: Q04DX003 (ip), vehicle: saline with Tween-80) 91 % of control and 108 % of control; (dose: 12.5 mg/kg/injection, schedule: Q04DX003 (ip), vehicle: saline with Tween-80) 100 % of control. The T/C reads like this: (dose: 25.0 mg/kg/injection, schedule: Q04DX003 (ip), vehicle: saline with Tween-80) 117 % of control; (dose: 50.0 mg/kg/injection, schedule: Q04DX003 (ip), vehicle: saline with Tween-80) 91 % of control and 121 % of control.
